Laboratory results taken from patent publication US4309340A, “Polypeptide compositions” (American Home Products Corporation, priority 1980, dated 1982).
Where a SMILES comes first, the peptide text is derived from it. Where no end group is shown, it is not given here. [ ]: non-standard residue; d: D form.

Experiments:
[1] = system: T lymphocytes isolated from spleens of male CBA/J or NZB mice; test: T lymphocyte proliferation, 3H-thymidine incorporation; type: cell-based; parameters: key: A = Active; IA = Inactive; settings: 48 hours culture, 200 μl
Description: The activity of the compounds of Example 2 and Example 4 was determined according to the following procedure:
T lymphocytes are isolated from spleens of male CBA/J or NZB mice. Cell homogenates are prepared in Hank's balanced salt solution (HBSS). After removal of larger particles and repeated washing of the cells in HBSS they are suspended in minimum essential medium (MEM) and passed through a glass wool column to remove macrophages. The cells are then incubated on a nylon wool column at 37° C., 95% air, 5% CO2, for 45 minutes. The non-adherant T lymphocytes are then eluted from the column, counted, and adjusted to 20×10^6 cells/ml. 50 μl of cells are cultured (37° C., 95% air, 5% CO2) with compound, for 48 hours before the addition of 0.5 μCi. of 3H-thymidine for the last 16 hours of culture. The total volume of the culture system is 200 μl. The cells are then harvested on a multiple automatic sample harvester (Mash II), the glass fiber filter disks placed in 10 ml. of xylene base scintillation fluid, and counted for 1 minute in a liquid scintillation counter. Results are reported as CPM±SE. Comparisons are made between counts obtained with control cultures and cultures containing compound and a determination made as to whether the compounds are active at the dosage tested.

[2] = system: autologous rosette-forming cells in the spleens of athymic mice; settings: in vivo; cited from earlier work

| Molecule | Activity (T-cell proliferation, 3H-thymidine CPM vs control cultures) ([1]; 0.0015 μg/culture) | Activity (T-cell proliferation, 3H-thymidine CPM vs control cultures) ([1]; 0.006 μg/culture) | Activity (T-cell proliferation, 3H-thymidine CPM vs control cultures) ([1]; 0.025 μg/culture) | Activity (T-cell proliferation, 3H-thymidine CPM vs control cultures) ([1]; 0.05 μg/culture) | Activity (T-cell proliferation, 3H-thymidine CPM vs control cultures) ([1]; 0.1 μg/culture) | Activity (T-cell proliferation, 3H-thymidine CPM vs control cultures) ([1]; 0.2 μg/culture) | Numbers of autologous rosette-forming cells in spleens of athymic mice [2] |
| --- | --- | --- | --- | --- | --- | --- | --- |
| CC(=O)O.CC(=O)O.CC(=O)O.CC(C)[C@H](NC(=O)[C@H](CC(N)=O)NC(=O)[C@H](CCCCN)NC(=O)[C@@H](N)CCCNC(=N)N)C(=O)N[C@@H](Cc1ccc(O)cc1)C(N)=O [Arg--Lys--Asn--Val--Tyr--NH2, L-Arginyl-L-lysyl-L-asparaginyl-L-valyl-L-tyrosyl-amide triacetate salt] (H-RKNVY-NH2) | A | A | A | A | A | IA |  |
| CC(=O)O.CC(=O)O.CC(=O)O.CC(C)[C@H](NC(=O)[C@H](CC(N)=O)NC(=O)[C@H](CCCCN)NC(=O)[C@H](N)CCCNC(=N)N)C(=O)N[C@H](Cc1ccccc1)C(N)=O [D-Arg--Lys--Asn--Val--D-Phe--NH2, D-Arginyl-L-lysyl-L-asparaginyl-L-valyl-D-phenylalanyl amide tri acetate salt] (H-[dR]KNV[dF]-NH2) | A | A | A |  | A |  |  |
| RKDVY [arginyl-lysyl-aspartyl-valyl-tyrosine] |  |  |  |  |  |  | reducing the high numbers of autologous rosette-forming cells |
